Values of other authors, collected in US20050143344A1, “Methods and compositions using immunomodulatory compounds for the treatment and management of central nervous system disorders or diseases” (priority 2003, published 2005).

Assays:
[1] = for conversion in acetone and other anhydrous systems: acetone / anhydrous solvent systems
nigrostriatal neurons = conditions: lentiviral vector delivery

Nc1cccc2c1CN(C1CCC(=O)NC1=O)C2=O (stereo not drawn) [Form B, 3-(4-amino-1-oxo-1,3 dihydro-isoindol-2-yl)-piperidene-2,6-dione]
conversion upon heating ([1]; 175° C. for about five minutes): can convert to Form F
conversion in acetone and other anhydrous systems [1]: converts to other forms
stability / conversion in aqueous solvent systems ([1]; aqueous solvent systems): converts to Form E

Nc1cccc2c1CN(C1CCC(=O)NC1=O)C2=O (stereo not drawn) [Form C, 3-(4-amino-1-oxo-1,3 dihydro-isoindol-2-yl)-piperidene-2,6-dione]
conversion at higher relative humidities [1]: can convert to Form B

Nc1cccc2c1CN(C1CCC(=O)NC1=O)C2=O (stereo not drawn) [Form D, 3-(4-amino-1-oxo-1,3 dihydro-isoindol-2-yl)-piperidene-2,6-dione]
conversion at higher relative humidities [1]: will typically convert to Form B

Nc1cccc2c1CN(C1CCC(=O)NC1=O)C2=O (stereo not drawn) [Form E, 3-(4-amino-1-oxo-1,3 dihydro-isoindol-2-yl)-piperidene-2,6-dione]
conversion in THF solvent system ([1]; THF solvent system): to Form G
conversion upon heating (desolvation) ([1]; about 125° C. for about five minutes): can convert to Form B
conversion in acetone and other anhydrous systems [1]: can convert to Form C

B1: GDNF: glial cell line derived neurotrophic factor, delivered by lentiviral vectors to striatum and SN of rhesus monkeys (protein, UniProt P39905 78-211, looked up)
Glial cell line-derived …: SPDKQMAVLPRRERNRQAAAANPENSRGKGRRGQRGKNRGCVLTAIHLNVTDLGLGYETKEELIFRYCSGSCDAAETTYDKILKNLSRNRRLVSDKVGQACCRPIAFDDDLSFLDDNLVYHILRKHSAKRCGCI
modifications: lentiviral vector delivery
notes: glial cell line derived neurotrophic factor, delivered by lentiviral vectors to striatum and SN of rhesus monkeys
motor deficits (nigrostriatal neurons; MPTP treated monkeys): reversed
dopaminergic function (nigrostriatal neurons; aged monkeys): augmented
functional deficits (nigrostriatal neurons; monkeys treated with MPTP): reversed
nigrostriatal degeneration (nigrostriatal neurons; monkeys treated with MPTP): prevented
